{"source": "paper PMC7953584", "about": "“An Experimental Study on [^125I]I-pHLIP (Var7) for SPECT/CT Imaging of an MDA-MB-231 Triple-Negative Breast Cancer Mouse Model by Targeting the Tumor Microenvironment” (Molecular Imaging, 2021)", "key": {"MDA-MB-231 cells": {"test_system": "MDA-MB-231 cells", "experiment": "Cell binding fraction (cellular uptake test)", "type": "cell-based, human", "conditions": "for binding fraction B/(B + F) × 100%: 3.7 kBq per well, γ counter, mean ± SD", "description": "The human breast cancer cell line MDA-MB-231 was purchased from Shanghai Institute of Biochemistry and Cell Biology, Chinese Academy of Sciences and cultured in L-15 medium containing 10% fetal bovine serum at 37°C without CO2.\n• Cell Plating. After the MDA-MB-231 cells were grown to greater than 90% confluence, the cell concentration was adjusted to approximately 1.0 × 10^5 cells/mL, 1 mL of the cell suspension was added to each well of a 12-well plate, and cells were cultured overnight at 37°C in a cell incubator. • Drug Administration. At the logarithmic growth phase, the cells were treated with drugs on the day after attachment; 3.7 kBq of [^125I]I-pHLIP (Var7) (20 μL volume) was added to each well. The pH inside the wells was adjusted to 7.4 and 6.0, yielding two groups of cells according to the pH value. • After 10 min, 40 min, 1 h, and 2 h of culture without CO2, the supernatant was aspirated into a tube and washed with PBS of the corresponding pH (pH 7.4 and 6.0) twice. The wash solution was also added to the supernatant tube. The cells were completely digested with trypsin, after which the cell suspension was aspirated into a tube and washed twice with PBS; the wash solution was also added to the tube. The radioactive counts of the cell tube (B) and supernatant tube (F) were measured by a γ counter. The cell binding fraction of the marker was calculated as B/(B + F) × 100%"}, "[1]": {"test_system": "MDA-MB-231 tumor-bearing mice", "experiment": "Small-animal SPECT/CT imaging", "type": "in vivo, BALB/c nude mice", "conditions": "1 and 2 h after injection; 3.7 MBq/200 μL tail vein; thyroid blocked with 0.1% KI", "description": "A mouse model bearing a human breast cancer cell line, MDA-MB-231, was established. MDA-MB-231 cells were cultured using the conventional method. Cells were collected at the logarithmic growth phase and washed once with PBS. The cells were then diluted to prepare suspensions at a concentration of approximately 1 × 10^6 cells/mL, which were temporarily stored in an ice box. Female 4-week-old BALB/c nude mice (16-20 g) were selected. MDA-MB-231 cells were inoculated subcutaneously using a disposable insulin syringe inserted into the right lateral thighs of the nude mice. The number of inoculated cells in each nude mouse was approximately 0.1 mL. The nude mice were raised under specific pathogen-free (SPF) conditions.\nImaging was started when the diameter of the tumor grew to 0.8-1.0 cm. Three days before imaging, 3 nude mice began to drink 0.1% KI solution to block the thyroid gland until the end of the experiment. • The machine was calibrated daily • Anesthesia Induction. […] Imaging settings for the SPECT/CT and reconstruction are as follows: the time per frame was 10 min, voxel size was 0.8 mm, number of subsets was 32, and number of iterations was 15 • The injection time, injection dose, and residual dose were recorded according to the tables in the experiment"}}, "note": "Residues, ends and D or L forms follow the SMILES beside them.", "data": [{"compound": "CC(C)C[C@H](NC(=O)[C@H](CCC(=O)O)NC(=O)[C@H](CC(C)C)NC(=O)[C@H](CC(C)C)NC(=O)[C@H](CC(C)C)NC(=O)[C@@H](NC(=O)[C@H](CCC(=O)O)NC(=O)[C@@H](NC(=O)[C@@H]1CCCN1C(=O)[C@H](Cc1ccccc1)NC(=O)[C@H](CC(C)C)NC(=O)[C@H](Cc1c[nH]c2ccccc12)NC(=O)[C@H](CCC(=O)O)NC(=O)[C@H](CC(C)C)NC(=O)[C@H](Cc1ccc(O)c(I)c1)NC(=O)[C@H](CCCNC(=N)N)NC(=O)[C@H](C)NC(=O)[C@H](Cc1c[nH]c2ccccc12)NC(=O)[C@@H]1CCCN1C(=O)[C@H](CC(N)=O)NC(=O)[C@H](CCC(N)=O)NC(=O)[C@H](CCC(=O)O)NC(=O)[C@H](CCC(=O)O)NC(=O)[C@H](C)N)[C@@H](C)O)[C@@H](C)O)C(N)=O", "note": "[[^125I]I-pHLIP (Var7)] (HELM PEPTIDE1{A.E.E.Q.N.P.W.A.R.[O=C([C@H](Cc1ccc(O)c(I)c1)N[*:1])[*:2]].L.E.W.L.F.P.T.E.T.L.L.L.E.L.[am]}$$$$V2.0)", "values": [{"measurement": "binding fraction B/(B + F) × 100%", "setting": "MDA-MB-231 cells; pH 6.0, 10 min", "result": "1.9 ± 0.1", "unit": "%"}, {"measurement": "binding fraction B/(B + F) × 100%", "setting": "MDA-MB-231 cells; pH 6.0, 40 min", "result": "3.5 ± 0.1", "unit": "%"}, {"measurement": "binding to MDA-MB-231 cells (in words)", "setting": "MDA-MB-231 cells; pH 7.4", "result": "essentially did not bind"}, {"measurement": "binding fraction B/(B + F) × 100%", "setting": "MDA-MB-231 cells; pH 7.4, 10 min", "result": "0.9 ± 0.1", "unit": "%"}, {"measurement": "binding fraction B/(B + F) × 100%", "setting": "MDA-MB-231 cells; pH 7.4, 40 min", "result": "0.8 ± 0.1", "unit": "%"}, {"measurement": "binding fraction B/(B + F) × 100%", "setting": "MDA-MB-231 cells; pH 7.4, 1 h", "result": "0.8 ± 0.1", "unit": "%"}, {"measurement": "binding fraction B/(B + F) × 100%", "setting": "MDA-MB-231 cells; pH 7.4, 2 h", "result": "0.6 ± 0.1", "unit": "%"}, {"measurement": "tumor visibility on SPECT/CT", "setting": "[1]", "result": "clearly visible tumors"}]}]}
